From US10137116B2, “Benzimidazole sulfide derivatives for the treatment or prevention of tuberculosis” (priority 2015, dated 2018)
Converted amounts (≈) assume the structure as drawn. “Also recorded” adds a separate entry of the source. Like-named read-outs stand apart in the source and are kept apart here.

Legend:
[1] = design: species or system BALB/c mice; details: BALB/c, mouse, in vivo, 0.5 h
Experimental: For pharmacokinetic studies BALB/c mice (18-20 g) were given 100 mg/kg or 300 mg/kg LPZS in 20% TPGS (D-α tocopheryl polyethylene glycol 1000 succinate). At given time-points, blood from 3 mice was taken and, after spinning, serum was treated with acetonitrile (1:4 ratio). After a second spin, supernatants were frozen for LC/MS experiments.
BALB/c mice were given 100 mg/kg or 300 mg/kg of LPZS by oral gavage and serum levels were determined after 0.5, 1, 2, 4, 8 and 24 hours (FIG. 5).

Enterococcus faecalis = experiment: REMA MIC; format: cell-based
Mtb strains = experiment: MIC, summary statement for Mtb strains; format: cell-based; details: Mycobacterium tuberculosis; Mtb strains such as H37Rv, Erdman and HN878 (Table 3)
human proton pump = human proton pump (Homo sapiens, UniProt P20648); details: cited from earlier work
[2] = system: Mycobacterium massiliense 2005-0484; experiment: REMA MIC; format: cell-based; details: Mycobacteroides abscessus, 20050484
[3] = system: Corynebacterium glutamicum; experiment: REMA MIC; format: cell-based
Staphylococcus aureus = experiment: REMA MIC; format: cell-based
[4] = system: Mycobacterium abcessus 2005-0524; experiment: REMA MIC; format: cell-based; details: 20050524
Candida albicans = experiment: REMA MIC; format: cell-based
Escherichia coli = experiment: REMA MIC; format: cell-based
Bacillus subtilis = experiment: REMA MIC; format: cell-based
Mycobacterium avium = experiment: REMA MIC; format: cell-based
[5] = system: Mycobacterium smegmatis mc2155; experiment: microbe, parasite or virus in culture; format: cell-based; details: Mycolicibacterium smegmatis
HepG2 = format: cell-based, human
Text: (§1) Cytotoxicity of LPZS on THP1 macrophages, human liver hepatoma cells (HuH7-D12), human lung epithelial carcinoma cells (A549) and human embryonic liver cells (HepG2) (Table 5).

Pseudomonas putida = experiment: REMA MIC; format: cell-based
Listeria monocytogenes = experiment: REMA MIC; format: cell-based
Mycobacterium marinum M = experiment: REMA MIC; format: cell-based
non-Mtb strains = experiment: MIC, summary statement for non-Mtb strains; format: cell-based; details: other non-Mtb strains such as Mycobacterium abcessus 2005-0524 or Escherichia coli
Micrococcus Luteus = experiment: REMA MIC; format: cell-based
[6] = system: Mycobacterium tuberculosis HN878 (Beijing strain); experiment: REMA MIC; format: cell-based
[7] = doses as high as 300 mg/kg twice a day
Salmonella typhimurium = experiment: REMA MIC; format: cell-based; details: Salmonella enterica
[8] = system: Corynebacterium diphtheriae; experiment: REMA MIC; format: cell-based
Pseudomonas aeruginosa = experiment: REMA MIC; format: cell-based
[9] = system: Mycobacterium bolletii 1999-0888; experiment: REMA MIC; format: cell-based; details: Mycobacteroides abscessus, 19990888
[10] = system: Mycobacterium vaccae ATCC 15483; experiment: REMA MIC; format: cell-based; details: Mycolicibacterium vaccae, ATCC15483
[11] = system: Mycobacterium tuberculosis Erdman; experiment: REMA MIC; format: cell-based
Mtb H37Rv = experiment: microbe, parasite or virus in culture; format: cell-based, Mycobacterium tuberculosis; details: for IC50: Mycobacterium tuberculosis, H37RV
Mtb-H37Rv = format: in vivo, BALB/c mice; details: 300 mg/kg twice a day for 9 days, vs vehicle TPGS, FIG. 4
[12] = system: intracellular Mtb-GFP (Mtb-Erdman) in MRC-5 fibroblasts; experiment: microbe, parasite or virus in culture; format: cell-based, Mycobacterium tuberculosis; details: for IC50: Mycobacterium tuberculosis, ERDMAN, MRC5; for activity in ex vivo assay: intracellular (ex vivo) assay
[13] = system: Mycobacterium tuberculosis H37Rv; experiment: REMA MIC; format: cell-based
THP-1 = format: cell-based
Text: as §1

[14] = system: Mtb-Erdman infected MRC-5 human lung fibroblasts; experiment: Fibroblast survival assay (HTS): protection of MRC-5 lung fibroblasts from Mtb-induced cytotoxicity; format: cell-based, Mycobacterium tuberculosis; details: for activity in fibroblast survival assay: concentrations up to 50 μM, FIG. 1
[15] = Intracellular drug quantification in MRC-5 cells (LC/MS); format: in vitro ADME, human; details: MRC-5 cells exposed to 2 μM, 48 hours
Experimental: For intracellular drug quantification, 20000 MRC-5 cells were seeded in 96 well plates and exposed to 2 μM of LPZ. At given time-points, cells were extensively washed with PBS and lysed with 0.1% Triton X-100 in PBS and acetonitrile (1:1 ratio). After spinning at 15,000 g at 4° C., samples were shock frozen in liquid nitrogen and stored at −80° C. for MS.
Quantification in 7H9 broth was performed with 500 nM of LPZ, acetonitrile was added in a 1:1 ratio at given time-points followed by spinning and shock freezing. The UPLC separation was done on an Agilent 1290 Infinity LC system including the 1290 Infinity LC system Binary Pump with integrated degasser, the High Performance Autosampler and a thermostatted column compartment. The samples (2 μL) were injected into a Zorbax Extend-C18 (2.1×50 mm, 1.8 μm) analytical column operated at 40° C., using H2O—HCOOH 0.1% and CH3CN—HCOOH 0.1% as mobile phases A and B (2 to 100% B in 5 min) at a flow rate of 0.4 mL/min. The UPLC system was interfaced with a 6530 Accurate-Mass Q-TOF LC/MS system (Agilent Technologies). Electrospray-ionisation MS data were acquired in the positive ionization mode, in the mass range m/z 100-1000 (2 spectra/s). […]
The intracellular LPZ and possible metabolites were quantified at different time-points over a period of 48 hours using LC/MS.

[16] = Drug quantification in 7H9 broth (LC/MS); format: physicochemical; details: 500 nM, 48 hours, FIG. 3C
Experimental: Quantification in 7H9 broth was performed with 500 nM of LPZ, acetonitrile was added in a 1:1 ratio at given time-points followed by spinning and shock freezing. The UPLC separation was done on an Agilent 1290 Infinity LC system including the 1290 Infinity LC system Binary Pump with integrated degasser, the High Performance Autosampler and a thermostatted column compartment. The samples (2 μL) were injected into a Zorbax Extend-C18 (2.1×50 mm, 1.8 μm) analytical column operated at 40° C., using H2O—HCOOH 0.1% and CH3CN—HCOOH 0.1% as mobile phases A and B (2 to 100% B in 5 min) at a flow rate of 0.4 mL/min. The UPLC system was interfaced with a 6530 Accurate-Mass Q-TOF LC/MS system (Agilent Technologies). Electrospray-ionisation MS data were acquired in the positive ionization mode, in the mass range m/z 100-1000 (2 spectra/s). Experimental parameters were set as follows: Fragmentor: 190V, Vcap: 3500 V, gas temperature: 300° C., sheath gas temperature: 350° C. External calibration was carried out with a solution of ESI_L (Agilent). Data were processed using MassHunter.
In mycobacterial growth medium, the results were markedly different. A rapid decay of LPZ was also observed confirming the instability of this drug. However, though LPZS was detectable in increasing amounts over time, it was not the major product of LPZ decay (FIG. 3C). […]

[17] = system: intracellular Mtb-GFP in RAW264.7 macrophages; experiment: microbe, parasite or virus in culture; format: cell-based; details: Mycobacterium tuberculosis, FIG. 2B, read-out: IC50 (growth of intracellular bacteria)
[18] = table values in μM or words, read-out: IC50 against Mtb in broth
[19] = table values in μM or words, read-out: IC50 intracellular

Sequence of human proton pump (P20648 whole entry): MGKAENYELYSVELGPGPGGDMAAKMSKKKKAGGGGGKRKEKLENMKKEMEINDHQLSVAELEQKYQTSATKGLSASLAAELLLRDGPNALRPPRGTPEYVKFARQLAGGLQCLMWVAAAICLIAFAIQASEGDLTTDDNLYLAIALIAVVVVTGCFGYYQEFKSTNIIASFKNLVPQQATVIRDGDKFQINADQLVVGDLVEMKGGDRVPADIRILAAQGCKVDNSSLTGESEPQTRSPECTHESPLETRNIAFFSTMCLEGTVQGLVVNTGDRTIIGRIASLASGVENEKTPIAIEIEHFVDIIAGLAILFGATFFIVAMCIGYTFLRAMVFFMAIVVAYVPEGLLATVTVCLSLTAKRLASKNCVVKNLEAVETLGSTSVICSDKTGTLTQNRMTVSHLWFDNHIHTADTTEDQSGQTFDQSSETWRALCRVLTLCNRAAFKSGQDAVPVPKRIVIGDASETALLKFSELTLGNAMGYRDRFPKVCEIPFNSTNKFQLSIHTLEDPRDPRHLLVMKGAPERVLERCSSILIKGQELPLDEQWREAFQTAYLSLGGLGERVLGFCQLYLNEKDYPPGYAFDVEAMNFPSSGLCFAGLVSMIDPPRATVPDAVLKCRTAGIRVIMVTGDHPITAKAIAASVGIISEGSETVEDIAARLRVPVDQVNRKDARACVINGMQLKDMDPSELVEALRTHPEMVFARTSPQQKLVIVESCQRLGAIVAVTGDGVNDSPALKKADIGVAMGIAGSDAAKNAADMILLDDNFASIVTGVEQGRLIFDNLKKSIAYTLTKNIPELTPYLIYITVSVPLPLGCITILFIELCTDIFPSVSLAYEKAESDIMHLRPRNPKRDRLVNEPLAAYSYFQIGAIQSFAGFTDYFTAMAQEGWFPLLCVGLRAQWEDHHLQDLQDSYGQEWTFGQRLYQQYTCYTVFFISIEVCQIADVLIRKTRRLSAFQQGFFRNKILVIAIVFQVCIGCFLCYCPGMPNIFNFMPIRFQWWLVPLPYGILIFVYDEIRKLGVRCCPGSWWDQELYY
Sequence of human proton pump (P51164 whole entry partner): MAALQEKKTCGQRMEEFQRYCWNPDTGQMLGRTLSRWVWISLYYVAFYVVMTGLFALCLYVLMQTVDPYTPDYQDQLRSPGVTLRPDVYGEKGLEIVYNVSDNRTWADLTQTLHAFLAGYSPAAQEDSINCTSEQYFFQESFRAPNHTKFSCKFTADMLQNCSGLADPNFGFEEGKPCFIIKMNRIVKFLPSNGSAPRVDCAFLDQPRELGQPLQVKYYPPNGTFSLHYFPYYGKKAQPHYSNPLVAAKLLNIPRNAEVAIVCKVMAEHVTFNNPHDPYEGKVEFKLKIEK

In the case of `Cc1c(OCC(F)(F)F)ccnc1CSc1nc2ccccc2[nH]1` [LPZS, Lanzoprazole sulfide], the “concentration in blood relative to Cmax” value [1] is reported as 100 % of Cmax, the MIC (Enterococcus faecalis) is reported as over 100 µM and the MIC (Mtb strains) is reported as under 2 µM. For the same molecule, the “activity towards the human proton pump” value (human proton pump) was “no activity”, the MIC [2] was over 100 µM and the MIC [3] was over 100 µM. It also gave an MIC (Staphylococcus aureus) of over 100 µM, an MIC [4] of over 100 µM and an MIC (Candida albicans) of over 100 µM. It also gave an MIC (Escherichia coli) of over 100 µM, an MIC (Bacillus subtilis) of over 100 µM and an MIC (Mycobacterium avium) of over 100 µM. It also gave an MIC [5] of over 100 µM, a TD50 (HepG2) of 25 µM and a TD99 (HepG2) of 100 µM. The MIC (Pseudomonas putida) was over 100 µM, the MIC (Listeria monocytogenes) was over 100 µM and the MIC (Mycobacterium marinum M) was 100 µM (≈ 35.3 µg/mL). The MIC (non-Mtb strains) was over 100 µM, the MIC (Micrococcus Luteus) was over 100 µM and the MIC [6] was 1.74 µM (≈ 0.615 µg/mL). The “signs of toxicity in mice” value [7] was “no signs of toxicity”, the MIC (Salmonella typhimurium) was over 100 µM and the MIC [8] was over 100 µM. It also gave an MIC (Pseudomonas aeruginosa) of over 100 µM, an MIC [9] of over 100 µM and an MIC [10] of over 100 µM. It also gave an MIC [11] of 1.21 µM (≈ 0.428 µg/mL), an IC50 (Mtb H37Rv; read-out: IC50 (Mtb in broth)) of 460 nM and an IC50 (Mtb H37Rv; table values in nM, read-out: IC50 against Mtb in broth) of 460 nM. For the same molecule, the “bacterial burden (cfu) in the lungs” value (Mtb-H37Rv) was “significantly reduced”, the IC50 ([12]; read-out: IC50 (intracellular activity)) was 590 nM and the IC50 ([12]; table values in nM, read-out: IC50 intracellular) was 590 nM. The MIC [13] was 1.13 µM (≈ 0.399 µg/mL), the TD50 (THP-1) was 75 µM and the TD99 (THP-1) was over 100 µM.

For `Cc1c(OCC(F)(F)F)ccnc1C[S+]([O-])c1nc2ccccc2[nH]1` (racemic) [LPZ, (RS)-2-([3-méthyl-4-(2,2,2-trifluoroéthoxy)pyridin-2-yl]méthylsulfinyl)-1H-benzimidazole], the “fibroblast survival / protection against Mtb induced killing” value [14] was “supported fibroblast survival at rates comparable to well established anti-mycobacterial drugs such as Rifampicin and Moxifloxacine; also recorded: inhibits the growth of Mtb as well as Rifampicin or Moxifloxacine”, the intracellular decay [15] was “rapid intracellular decay” and the “decay in mycobacterial growth medium” value [16] was “rapid decay”. The IC50 (Mtb H37Rv; read-out: IC50 (Mtb in broth)) was 32800 nM, the IC50 (Mtb H37Rv; read-out: IC50 (inhibit Mtb)) was under 40000 nM and the IC50 (Mtb H37Rv; [18]) was 32800 nM. It also gave an IC50 ([12]; MRC-5 cells, FIG. 2A, read-out: IC50 (Mtb-GFP signal)) of 1470 nM, an IC50 [12, 19] of 1470 nM and an IC50 [17] of 2.2 µM.

With `COCCCOc1ccnc(C[S+]([O-])c2nc3ccccc3[nH]2)c1C` (stereo not shown) [Rabeprazole sodium] the IC50 (Mtb H37Rv; read-out: IC50 (Mtb in broth)) was 25000 nM, the IC50 (Mtb H37Rv; read-out: IC50 (inhibit Mtb)) was under 40000 nM and the IC50 (Mtb H37Rv; [18]) was 25000 nM. It also gave an IC50 [12, 19] of 6000 nM.

In the case of `COc1ccc2[nH]c([S+]([O-])Cc3ncc(C)c(OC)c3C)nc2c1` (stereo not shown) [Omeprazole], the “activity in fibroblast survival assay” value [14] is reported as “inactive”, the “activity in in vitro assay” value (Mtb H37Rv) is reported as “inactive” and the “activity in ex vivo assay” value [12] is reported as “inactive”.

For `FC(F)(F)Oc1ccc(C2CCN(c3ccc(CSc4nc5ccccc5[nH]4)cc3)CC2)cc1`, the IC50 (Mtb H37Rv; [18]) was about 48000 nM.

With `COc1ccnc(C[S+]([O-])c2nc3ccc(OC(F)F)cc3[nH]2)c1OC` (stereo not shown) [Pantoprazole] the “activity in fibroblast survival assay” value [14] was “inactive”, the “activity in in vitro assay” value (Mtb H37Rv) was “inactive” and the “activity in ex vivo assay” value [12] was “inactive”.

In the case of `COc1ccc2[nH]c([S+]([O-])Cc3ncc(C)c(OC)c3C)nc2c1` (stereo not shown) [drawing 26], the “IC50 against Mtb in broth” value (Mtb H37Rv; table values in μM or words) is reported as “Inactive” and the IC50 intracellular ([12]; table values in μM or words) is reported as “Inactive”.
